Source: patent US7202280B2, “Methods for the treatment and prevention of pancreatitis and for induction of liver regeneration” (priority 2002, dated 2007)

Key:
PAO = experiment: Hepatic PAO activity in SSAT transgenic rats after polyamine analogues without or with MDL72527; type: in vivo, rat; conditions: MDL72527 50 mg/kg i.p. twice, alone or in combination with the analogues
Procedure: FIGS. 9A–9B. Effect of polyamine analogues without or with MDL72527 on hepatic SSAT (FIG. 9A) and PAO (FIG. 9B) activities in SSAT transgenic rats. The rats were treated with the drugs as described in the legend for FIGS. 8A–8D. There were three to four animals in each group.
The production of transgenic Wistar rats (UKUR30) and mice (UKU181) harboring metallothionein-SSAT fusion gene (Suppola, S., Pietilä, M., Parkkinen, J. J., Korhonen, V. P., Alhonen, L., Halmekytö, M., Porter, C. W., and Jänne, J. (1999) Biochem. J. 338, 311–316) has been described earlier (Alhonen, L., Parkkinen, J. J., Keinänen, T., Sinervirta, R., Herzig, K. H., and Jänne, J. (2000) Proc. Natl. Acad. Sci. U.S.A. 97, 8290–8295; Lukkarinen, J., Gröhn, O., Sinervirta, R., Järvinen, A., Kauppinen, R. A., Jänne, J., and Alhonen, L. (1997) Stroke 28, 639–645). Partial hepatectomy was carried out according to the original method of Higgins and Anderson (Higgins, G. H., and Anderson, R. M. (1931) Arch. Pathol. 12, 186–202). […]
PAO activity was measured to verify the effectiveness of MDL72527 treatment and to determine whether the analogues have any effect on its activity. […]

SSAT transgenic rats = experiment: Stability of the analogues in the liver of SSAT transgenic rats without or with MDL72527 (hepatic polyamine pools); type: in vivo, rat; conditions: MDL72527 50 mg/kg i.p. twice
Procedure: FIGS. 8A-8D. Hepatic polyamine pools in SSAT transgenic rats treated with methylated polyamine analogues without or with MDL72527. The rats were injected twice with MDL72527 (50 mg/kg i.p.) at 16-h interval. The polyamine analogues (25 mg/kg i.p.) were injected 2 and 8 h later. The animals were sacrificed 24 h after the last MDL72527 injection. There were three to four animals in each group. Put, putrescine; […] Spd, spermidine; Me-Spd, α-methylspermidine; […] The production of transgenic Wistar rats (UKUR30) and mice (UKU181) harboring metallothionein-SSAT fusion gene (Suppola, […]., Porter, C. W., and Jänne, J. (1999) Biochem. […] (2000) Proc. Natl. Acad. Sci. U.S.A. 97, 8290-8295; Lukkarinen, […]., and Alhonen, L. (1997) Stroke 28, 639-645). Partial hepatectomy was carried out according to the original method of Higgins and Anderson (Higgins, G. H., and Anderson, R. M. (1931) Arch. Pathol. 12, 186-202). Treatments before partial hepatectomy and the determination of DNA synthesis were carried out as in ([…]., Suppola, […]., and […]. Biol. Chem. 277, 39867-39872). Transgenic 10 weeks old male rats were injected twice with MDL72527 (50 mg/kg i.p.) at 16-h interval to inactivate PAO according to (Bolkenius, F. N., Bey, P., and Seiler, N. (1985) Biochim. Biophys. […] An aliquot of the homogenates was used for the polyamine assays. The homogenates were centrifuged (at 13 000×g, for 30 min, at 4° C.) and the supernatants were used for the enzyme activity assays. The Institutional Animal Care and Use Committee of the University of Kuopio and by the Provincial Government approved animal experiments. […] Merck (Darmstadt, Germany).

C=C=CCNCCCCNCC=C=C [MDL72527, reference compound]
hepatic PAO activity (PAO): virtually completely inhibited PAO activity | hepatic putrescine and N^1-acetylspermidine pools (SSAT transgenic rats): greatly reduced putrescine content and increased the pool of N^1-acetylspermidine
